System: Two-spotted spider mite (Tetranychus urticae)
Experiment: Acaricidal action on two-spotted spider mite (kidney bean leaf disk spray)
Type: in vivo
Conditions: 500 ppm, adult females, 25° C., two days after treatment
Procedure: Acaricidal Action on Two-Spotted Spider Mite (Tetranychus urticae)
Leaf disk having a diameter of 2 cm was prepared by leaves of kidney bean, and the leaf disk was placed on the wetted filter paper. Adult hens of two-spotted spider mite were inoculated on the wetted filter paper, and then 50 ml of an agrochemical dispersion, prepared by diluting a formulation containing the benzimidazole compound represented by the general formula (1) of the present invention or salt thereof as an active ingredient to adjust each of the concentrations to 500 ppm, was sprayed on turntable uniformly. After the spraying, it was allowed to stand in a thermostatic chamber at 25° C. Two days after the treatment of an agrochemical dispersion, the dead mites were counted, the corrected mortality rate was calculated according to the formula shown below, and the acaricidal efficacy was evaluated according to the criteria of Test Example 2. This test was conducted in duplicate using 10 adult hens of two-spotted spider per plot. Corrected mortality(%)=(Number of dead mites in a non-treatment plot−Number of dead mites in a treatment plot)/(Number of dead mites in a non-treatment plot)×100 [Expression 4]

Row | Structure (SMILES) | acaricidal efficacy (corrected mortality rate), activity level
1 | CCS(=O)(=O)n1c(-n2cc(Cc3ccccc3)c(C(F)(F)F)n2)nc2ccccc21 [Compound 2-22] | D or higher
2 | CCS(=O)(=O)n1c(-n2cc(C(C)=O)c(C(F)(F)F)n2)nc2ccccc21 [Compound 2-25] | D or higher
3 | CCS(=O)(=O)n1c(-n2cc(C(=O)N(C)OC)c(C(F)(F)F)n2)nc2ccccc21 [Compound 2-30] | D or higher
4 | CCS(=O)(=O)n1c(-n2cc(C(=O)SC(C)(C)C)c(C(F)(F)F)n2)nc2ccccc21 [Compound 2-31] | D or higher
5 | CCOC(=O)c1cn(-c2nc3ccccc3n2S(=O)(=O)CC)nc1C(F)F [Compound 2-33] | D or higher
6 | CCS(=O)(=O)n1c(-n2cc(I)c(Br)n2)nc2ccccc21 [Compound 2-35] | D or higher
7 | CCOC(=O)/C=C/c1ccn(-c2nc3ccccc3n2S(=O)(=O)CC)n1 [Compound 2-36] | D or higher
8 | CCCCOc1nn(-c2nc3ccccc3n2S(=O)(=O)CC)cc1Br [Compound 2-37] | D or higher
9 | CCOC(=O)c1cn(-c2nc3ccccc3n2S(=O)(=O)CC)nc1OCC(F)(F)C(F)(F)F [Compound 2-41] | D or higher
10 | CCS(=O)(=O)n1c(-n2cc(Br)c(OC(F)F)n2)nc2ccccc21 [Compound 2-42] | D or higher
11 | CCS(=O)(=O)n1c(-n2cc(Cl)c(C(=O)OC(C)(C)C)n2)nc2ccccc21 [Compound 2-44] | D or higher
12 | CCS(=O)(=O)n1c(-n2cc(Br)c(C(=O)OC(C)(C)C)n2)nc2ccccc21 [Compound 2-45] | D or higher
13 | CCS(=O)(=O)n1c(-n2cc(C(=O)OC(C)(C)C)c(Cl)n2)nc2ccccc21 [Compound 2-47] | D or higher
14 | CCS(=O)(=O)n1c(-n2cc(C(=O)OC(C)(C)C)c(Br)n2)nc2ccccc21 [Compound 2-48] | D or higher
15 | CCS(=O)(=O)n1c(-n2cc(C(=O)OC(C)(C)C)c(C3CC3)n2)nc2ccccc21 [Compound 2-50] | D or higher
16 | CCS(=O)(=O)n1c(-n2cc(C(=O)OC(C)(C)C)c(OCC(F)(F)C(F)(F)F)n2)nc2ccccc21 [Compound 2-52] | D or higher
17 | CCS(=O)(=O)n1c(-n2cc([S+]([O-])C(C)C)c(C(F)(F)F)n2)nc2ccccc21 (centres unmarked) [Compound 2-55] | D or higher
18 | CCS(=O)(=O)n1c(-n2cc(S(=O)(=O)C(C)C)c(C(F)(F)F)n2)nc2ccccc21 [Compound 2-56] | D or higher
19 | CCS(=O)(=O)n1c(-n2cc(C(=O)OC(C)(C)C)c(C(C)C)n2)nc2ccccc21 [Compound 2-57] | D or higher
20 | CCS(=O)(=O)n1c(-n2cc(C(=O)OC(C)(C)C)c(C(C)(C)C)n2)nc2ccccc21 [Compound 2-58] | D or higher
21 | CCS(=O)(=O)n1c(-n2cc(C(=O)c3ccccc3)c(C(F)(F)F)n2)nc2ccccc21 [Compound 2-59] | D or higher

Row | Structure (SMILES) | acaricidal efficacy (corrected mortality rate), activity level
22 | CCS(=O)(=O)n1c(-n2cc(CCC(=O)OC(C)(C)C)c(C(F)(F)F)n2)nc2ccccc21 [Compound 2-61] | D or higher
23 | CCS(=O)(=O)n1c(-n2cc(C(=O)OC(C)(C)C)c(C(=O)OC(C)(C)C)n2)nc2ccccc21 [Compound 2-62] | D or higher
24 | CCCc1nn(-c2nc3ccccc3n2S(=O)(=O)CC)cc1C(=O)OC(C)(C)C [Compound 2-72] | D or higher
25 | CCOc1nn(-c2nc3ccccc3n2S(=O)(=O)CC)cc1C(=O)OC(C)(C)C [Compound 2-73] | D or higher
26 | CCCOc1nn(-c2nc3ccccc3n2S(=O)(=O)CC)cc1C(=O)OC(C)(C)C [Compound 2-74] | D or higher
27 | CCS(=O)(=O)n1c(-n2cc(C(=O)OC(C)(C)C)c(OCC(F)(F)F)n2)nc2ccccc21 [Compound 2-76] | D or higher
28 | CCS(=O)(=O)n1c(-n2cc(C(=O)OC(C)(C)C)c(OCC(F)F)n2)nc2ccccc21 [Compound 2-77] | D or higher
29 | CCS(=O)(=O)n1c(-n2cc(C(=O)OC(C)(C)C)c(OCC(F)(F)C(F)F)n2)nc2ccccc21 [Compound 2-78] | D or higher
30 | CCS(=O)(=O)n1c(-n2cc(C(=O)OC)c(C(C)(C)C)n2)nc2ccccc21 [Compound 2-79] | D or higher
31 | CCOC(=O)c1cn(-c2nc3ccccc3n2S(=O)(=O)CC)nc1/C=C/C1CC1 [Compound 2-80] | D or higher
32 | CCOC(=O)c1cn(-c2nc3ccccc3n2S(=O)(=O)CC)nc1I [Compound 2-81] | D or higher
33 | CCS(=O)(=O)n1c(-n2cc(C(=O)OC(C)(C)C)c(I)n2)nc2ccccc21 [Compound 2-82] | D or higher
34 | CCS(=O)(=O)n1c(-n2cc(C(=O)OC(C)(C)C)c(/C=C/C3CC3)n2)nc2ccccc21 [Compound 2-83] | D or higher
35 | CCS(=O)(=O)n1c(-n2cc(C(=O)OC(C)(C)C)c(CCC3CC3)n2)nc2ccccc21 [Compound 2-84] | D or higher
36 | CCCCCc1nn(-c2nc3ccccc3n2S(=O)(=O)CC)cc1C(=O)OC(C)(C)C [Compound 2-85] | D or higher
37 | CCS(=O)(=O)n1c(-n2cc(C(=O)OC(C)(C)C)c(C=C(C)C)n2)nc2ccccc21 [Compound 2-86] | D or higher
38 | CCS(=O)(=O)n1c(-n2cc(C(=O)OC(C)(C)C)c(CC(C)C)n2)nc2ccccc21 [Compound 2-87] | D or higher
39 | CCS(=O)(=O)n1c(-n2cc(C(=O)OC(C)(C)C)c(C#Cc3ccccc3)n2)nc2ccccc21 [Compound 2-88] | D or higher
40 | CCS(=O)(=O)n1c(-n2cc(C(=O)OC(C)(C)C)c(CCc3ccccc3)n2)nc2ccccc21 [Compound 2-89] | D or higher
41 | CCS(=O)(=O)n1c(-n2cc(C(=O)OC(C)(C)C)c(C(F)(F)C(F)(F)F)n2)nc2ccccc21 [Compound 2-90] | D or higher
